Measured values published in US6608064B2, “Pharmaceutical agents for the treatment of Parkinson's disease, ADHD and microadenomas” (Pfizer Inc, priority 1998, dated 2003).

System: MPTP-(1-methyl-4-phenyl-1,2,3,6-tetrahydropyridine) treated monkeys
Assay: Parkinsonian score in MPTP-treated monkeys after administration of sunipetron
Type: in vivo
Conditions: 0.5 mg/kg or 1.0 mg/kg, rated at 4 time points vs vehicle, estimated plasma levels (FIG. 1)
Protocol: Neurol., 35:655-661, 1994, and Klockgether et al., Ann. Neurol., 30:717-723, 1991.
The behavioral effects of administration of sunipetron on parkinsonian score in MPTP-(1-methyl-4-phenyl-1,2,3,6-tetrahydropyridine) treated monkeys was determined. The methods employed are described in Greenemyre et al., supra and Klockgether et al., supra.
Briefly, parkinsonian monkeys were administered 0.5 mg/kg or 1.0 mg/kg of sunipetron and the severity of parkinsonian symptoms was rated at each of 4 time points after drug administration as compared with administration of a control solution (“Vehicle”).
The minimum effective plasma level was approximately 100 ng/ml.

## O=C1CCC(=O)N1C[C@H]1CC[C@H]2CN(c3ncccn3)CCN2C1 [sunipetron]
  minimum effective plasma level (reduction in parkinsonian score): approximately 100 ng/ml
  plasma level at which the maximum reduction in parkinsonian score was attained: approximately 200 ng/ml
